# Earlier results, collected in US20090304794A1, “CONTROLLED RELEASE FORMULATIONS OF PRAMIPEXOLE” (Supernus Pharmaceuticals, Inc., priority 2008, published 2009).
# Like-named read-outs stand apart in the source and are kept apart here.
compound,measurement,setting,value
CCCN[C@H]1CCc2nc(N)sc2C1 [pramipexole],terminal elimination half-life,elderly volunteers,about 12 hours
same,lower clearance rate in females than males,females versus males,30%
same,terminal elimination half-life,healthy volunteers,about 8 hours
same,absolute bioavailability (BA),in vivo,greater than 90%
